Assay results reported in PubChem BioAssay (NCI).
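Compound exposure: 48 hours, 5 concentrations, 96-well plates. At the GI50, growth is halved. TGI marks complete inhibition of growth.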

What was measured:
Experiment in all cases: DTP human tumour cell line panel, 48 h
HCT-15 colon = tested on: HCT-15 colon
HL-60(TB) leukemia = tested on: HL-60(TB) leukemia
NCI/ADR-RES ovarian = tested on: NCI/ADR-RES ovarian
HCT-116 colon = tested on: HCT-116 colon
T-47D breast = tested on: T-47D breast
MOLT-4 leukemia = tested on: MOLT-4 leukemia
MDA-MB-231 breast = tested on: MDA-MB-231 breast
EKVX NSCLC = tested on: EKVX NSCLC
MALME-3M melanoma = tested on: MALME-3M melanoma
U251 CNS = tested on: U251 CNS

| Structure (SMILES) | TGI (HCT-15 colon) [µM] | TGI (HL-60(TB) leukemia) [µM] | TGI (NCI/ADR-RES ovarian) [µM] | TGI (HCT-116 colon) [µM] | TGI (T-47D breast) [µM] | TGI (MOLT-4 leukemia) [µM] | TGI (MDA-MB-231 breast) [µM] | TGI (EKVX NSCLC) [µM] | TGI (MALME-3M melanoma) [µM] | TGI (U251 CNS) [µM] | GI50 (HCT-15 colon) [µM] | GI50 (MOLT-4 leukemia) [µM] | GI50 (EKVX NSCLC) [µM] | GI50 (HL-60(TB) leukemia) [µM] | GI50 (NCI/ADR-RES ovarian) [µM] | GI50 (HCT-116 colon) [µM] | GI50 (T-47D breast) [µM] | GI50 (U251 CNS) [µM] |
| --- | --- | --- | --- | --- | --- | --- | --- | --- | --- | --- | --- | --- | --- | --- | --- | --- | --- | --- |
| CN(C)C=Nc1c2c(nc3ccccc13)CCCC2 | > 100 | > 100 | > 100 | > 100 | > 100 | > 100 | > 100 | > 100 | > 100 | > 100 |  |  |  |  |  |  |  |  |
| Cc1csc2c(=O)n(COCc3ccccc3)c(=O)[nH]c12 |  | > 100 | > 100 | > 100 |  | > 100 | > 100 | > 100 | > 100 | > 100 |  |  |  |  |  |  |  |  |
| Nc1nc(N)c2nc(CNc3ccc(C(=O)NC(CCNC(=O)c4ccccc4C(=O)O)C(=O)O)cc3)cnc2n1 (stereo not drawn) | > 100 | > 100 | > 100 | > 100 | > 100 | > 100 | > 100 | > 100 | > 100 | > 100 | 0.0072 | 0.0453 | 0.0214 |  |  |  |  |  |
| Clc1ccc(Nc2nnc(CNc3ccc(-c4nnc(Nc5ccc(Cl)cc5)o4)cc3)o2)cc1 | 35.4 | > 100 | > 77.9 | 33.7 | 56.6 | 49.3 | 25.4 | 44.4 | 28.5 | 23.2 |  |  |  |  |  |  |  |  |
| COC(=O)C1Cc2c([nH]c3ccccc23)-c2[nH]c3ccccc3c2CC(NC(C)=O)C(=O)N2CCCC2C(=O)N1 (stereo not drawn) | > 100 |  | > 100 | > 100 | > 100 | > 100 | > 100 | > 100 |  | > 100 |  |  |  |  |  |  |  |  |
| CP(=O)(O)C(N)c1ccccc1 (stereo not drawn) | > 100 | > 100 | > 100 | > 100 | > 100 | > 100 |  | > 100 | > 100 | > 100 |  |  |  |  |  |  |  |  |
| O=C(CSc1nnc(-c2ccc(N=Cc3ccc(Cl)cc3)cc2)o1)Nc1cccc([N+](=O)[O-])c1 | > 100 | > 100 |  | > 100 |  | > 100 |  | > 100 | > 100 | > 100 |  |  |  |  |  |  |  |  |
| CCOC(=O)c1cc([N+](=O)[O-])cc([N+](=O)[O-])c1Sc1ncnc2nc[nH]c12 | 19.7 | 4.33 | 8.4 | 7.69 | 3.34 | > 26.8 | 24.9 | 13.1 |  | 24.8 |  |  |  |  |  |  |  |  |
| O=C1C(=Cc2ccc([N+](=O)[O-])o2)C(=O)N(CCc2ccccc2)S(=O)(=O)N1CCc1ccccc1 | 30.2 | 41.9 |  | 29.9 |  | 56.6 |  | > 100 | 32 | > 100 |  |  |  |  |  |  |  |  |
| CCOC(=O)C1=C(O)c2ccc(OC)cc2C(=O)C1=O | > 100 | > 100 |  | > 100 |  | > 100 |  | > 100 | > 100 | > 100 |  |  |  |  |  |  |  |  |
| COC1=CC(c2ccc[nH]2)=N/C1=C\c1[nH]c(C)c(C)c1CCC(=O)OCc1ccccc1 | 1.18 | 3.46 | 2.01 | 1.11 | 0.876 | 1.44 |  | 1.9 |  | 1.52 | 0.305 | 0.24 | 0.281 | 0.799 | 0.382 | 0.065 | 0.227 | 0.322 |
| CN1C(=O)[C@@H]2[C@@H]3c4ccccc4N[C@@H]3c3[nH]c4ccccc4c3[C@@H]2C1=O | 50.1 |  | 52 | 74.9 |  | 55.6 | 63.2 | > 100 |  | 66.3 |  |  |  |  |  |  |  |  |
| Cc1ccc(Cc2n[nH]c(=O)n2N2C(=O)c3ccccc3C2=O)cc1 | > 100 |  | > 100 | > 100 | > 100 | > 100 | > 100 | > 100 | > 100 | > 100 |  |  |  |  |  |  |  |  |
| O=C1C(Cl)C(c2ccc([N+](=O)[O-])cc2)N1n1cnc2ccccc2c1=O (stereo not drawn) | > 100 |  |  | > 100 |  | > 100 |  | 85.6 | > 100 | > 100 |  |  |  |  |  |  |  |  |
| O=C1NC(Cc2ccccc2)C(=O)N2CCCC12 (stereo not drawn) | > 100 | > 100 |  | > 100 |  | > 100 |  | > 100 | > 100 | > 100 |  |  |  |  |  |  |  |  |
| CN(C)C1(c2cc3ccccc3s2)CCCCC1 | > 100 | 0.0658 | > 100 | > 100 |  | > 100 | > 100 | > 100 |  | > 100 |  |  |  |  |  |  |  |  |
| N#CCN1CCCN(CC#N)CCN(CC#N)CCCN(CC#N)CC1 |  | > 100 | > 100 | > 100 | > 100 | > 100 | > 100 |  | > 100 | > 100 |  |  |  |  |  |  |  |  |
| N/C(=N/N=C/c1cccc(F)c1)NO | > 100 | 93.5 |  | > 100 |  | > 100 |  | > 100 | > 100 | > 100 |  |  |  |  |  |  |  |  |
| COc1ccc(N2C(=O)C3C=CC(n4[nH]c(=O)n(Cc5ccccc5)c4=O)CC3C2=O)cc1 (stereo not drawn) | > 100 | > 100 |  | > 100 |  | > 100 |  | > 100 | > 100 | > 100 |  |  |  |  |  |  |  |  |
| CC(=O)Nc1ccc(C(=O)n2[nH]c(C)c(/C=C3\C(=O)C=Cc4ccccc43)c2=O)cc1 | > 100 | > 100 |  | > 100 |  | > 100 |  | > 100 | 59.3 |  |  |  |  |  |  |  |  |  |
| Cc1cc(=O)[nH]c(NNC(C#N)c2ccc(N(C)C)cc2)n1 (stereo not drawn) | > 100 | > 100 |  | > 100 |  |  |  |  | > 100 | > 100 |  |  |  |  |  |  |  |  |
| Cc1cc(N)c2cc(NC(=O)Nc3ccc4nc(C)cc(N)c4c3)ccc2n1 | > 100 |  | > 100 | > 100 | > 100 | > 100 | > 100 | > 100 | > 100 | > 100 |  |  |  |  |  |  |  |  |
| CCCCc1c2c(nc3c1CCCC3=O)CCCC2 | > 100 | > 100 |  | > 100 |  | > 100 |  | > 100 | 98.4 | > 100 |  |  |  |  |  |  |  |  |
| COCC1N=C(c2cc(OC)c(OC)c(OC)c2-c2cc3c(cc2[C@@H](C)O)OCO3)O[C@H]1c1ccccc1 (stereo partly drawn) | > 100 | > 100 | > 95.7 | > 100 |  | > 100 |  | > 95.5 | > 100 | > 100 |  |  |  |  |  |  |  |  |
